The record followed here is patent US10875851B2, “Factor XIIa inhibitors” (Merck Sharp & Dohme Corp., priority 2016, dated 2020).

Sequence of human Factor XIIa (P00748 373-615): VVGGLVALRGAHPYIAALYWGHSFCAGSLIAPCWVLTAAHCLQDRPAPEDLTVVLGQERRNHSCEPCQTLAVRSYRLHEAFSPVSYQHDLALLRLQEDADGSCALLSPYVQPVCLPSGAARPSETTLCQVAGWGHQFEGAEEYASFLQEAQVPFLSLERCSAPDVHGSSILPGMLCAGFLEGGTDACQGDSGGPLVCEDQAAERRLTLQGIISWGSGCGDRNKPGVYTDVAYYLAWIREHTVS

For this experiment, the target named is human Factor XIIa (Homo sapiens (Human), UniProt P00748). The experiment in a line: Factor XIIa Assay. Type of experiment: biochemical. To be noted: purified human Factor XIIa 500 pM; substrate n-Acetyl-Lys-Pro-Arg-AFC 100 μM; pH 7.4; read-out: FXIIa IC50. An outline of the steps:
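Purified human FXIIa at 500 pM final with 100 μM n-Acetyl-Lys-Pro-Arg-AFC in 50 mM HEPES, 150 mM NaCl, 5 mM CaCl2, 0.1% PEG 8000, pH 7.4, at room temperature or 37° C. Initial fluorogenic hydrolysis rates measured after enzyme–inhibitor equilibration; IC50 taken where Vi=Vo/2.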
By IC50 is commonly meant the midpoint of a concentration-inhibition curve. In the case of `C[C@@H]1N=C(N2CCN(C(=O)[C@@H](CCCCN(C)C)NC3CCC4(CC3)CCN(Cc3ccccc3)C4)[C@H](C(=O)NCc3cccs3)C2)O[C@H]1c1ccccc1` (stereo partly drawn) [Example 142, (2S)-1-[N^2-(2-benzyl-2-azaspiro[4.5]dec-8-yl)-N^6,N^6-dimethyl-D-lysyl]-4-[(4S,5S)-4-methyl-5-phenyl-4,5-dihydro-1,3-oxazol-2-yl]-N-(thiophen-2-ylmethyl)piperazine-2-carboxamide], the IC50 came out at 0.4 nM.

With `C[C@H]1N=C(N2CCN(C(=O)[C@@H](CCCCN(C)C)NC3CCC4(CC3)CCN(Cc3ccccc3)C4)[C@H](C(=O)NCc3cccs3)C2)O[C@@H]1c1ccccc1` (stereo partly drawn) [Example 143, (2S)-1[N^2-(2-benzyl-2-azaspiro[4.5]dec-8-yl)-N^6,N^6-dimethyl-D-lysyl]-4-[(4R,5R)-4-methyl-5-phenyl-4,5-dihydro-1,3-oxazol-2-yl]-N-(thiophen-2-ylmethyl)piperazine-2-carboxamide], the IC50 is 9.4 nM.

With `CN(C)CCCC[C@@H](NC1CCCCC1)C(=O)N1CCN(C2=NC(C)(C)CO2)C[C@H]1C(=O)NCc1cccs1` [Example 144, (2S)-1-(N^2-cyclohexyl-N^6,N^6-dimethyl-D-lysyl)-4-(4,4-dimethyl-4,5-dihydro-1,3-oxazol-2-yl)-N-(thiophen-2-ylmethyl)piperazine-2-carboxamide], the IC50 is 29.7 nM.

On to `CN(C)CCCC[C@H](C(=O)N1CCN(C2=NC(C)(C)C(c3ccccc3)O2)C[C@H]1C(=O)NCc1ccc2[nH]cc(Cl)c2c1)N(C)C` (stereo partly drawn) [Example 145, (2S)-N-[(3-chloro-1H-indol-5-yl)methyl]-4-(4,4-dimethyl-5-phenyl-4,5-dihydro-1,3-oxazol-2-yl)-1-(N^2,N^2,N^6,N^6-tetramethyl-D-lysyl)piperazine-2-carboxamide], for which the IC50 was 6.7 nM.

On to `CN(C)CCCC[C@H](C(=O)N1CCN(C2=NC(C)(C)C(c3ccccc3)O2)C[C@H]1C(=O)NCc1ccc2[nH]cc(Cl)c2c1)N(C)C` (stereo partly drawn) [Example 146, (2S)-N-[(3-chloro-1H-indol-5-yl)methyl]-4-(4,4-dimethyl-5-phenyl-4,5-dihydro-1,3-oxazol-2-yl)-1-(N^2,N^2,N^6,N^6-tetramethyl-D-lysyl)piperazine-2-carboxamide], for which the IC50 is 5.7 nM.

Regarding `CN(C)CCCC[C@H](C(=O)N1CCN(C2=NC(C)(C)C(c3ccccc3)O2)C[C@H]1C(=O)NCc1cc2cnccc2s1)N(C)C` (stereo partly drawn) [Example 147, (2S)-4-(4,4-dimethyl-5-phenyl-4,5-dihydro-1,3-oxazol-2-yl)-1-(N^2,N^2,N^6,N^6-tetramethyl-D-lysyl)-N-(thieno[3,2-c]pyridin-2-ylmethyl)piperazine-2-carboxamide], the IC50 was found to be 44.1 nM.

For the compound `CN(C)CCCC[C@H](C(=O)N1CCN(C2=NC(C)(C)C(c3ccccc3)O2)C[C@H]1C(=O)NCc1ccc(CN)c(F)c1)N(C)C` (stereo partly drawn) [Example 148, (2S)-N-[4-(aminomethyl)-3-fluorobenzyl]-4-(4,4-dimethyl-5-phenyl-4,5-dihydro-1,3-oxazol-2-yl)-1-(N^2,N^2,N^6,N^6-tetramethyl-D-lysyl)piperazine-2-carboxamide], the IC50 amounted to 12.7 nM.

Regarding `CN(C)CCCC[C@H](C(=O)N1CCN(C2=NC(C)(C)C(c3ccccc3)O2)C[C@H]1C(=O)NCc1ccc(CN)c(Cl)c1)N(C)C` (stereo partly drawn) [Example 149, (2S)-N-[4-(aminomethyl)-3-chlorobenzyl]-4-(4,4-dimethyl-5-phenyl-4,5-dihydro-1,3-oxazol-2-yl)-1-(N^2,N^2,N^6,N^6-tetramethyl-D-lysyl)piperazine-2-carboxamide], the IC50 stood at 34.9 nM.

For the compound `CN(C)CCCC[C@H](C(=O)N1CCN(C2=NC(C)(C)C(c3ccccc3)O2)C[C@H]1C(=O)NCc1cc(CN)cs1)N(C)C` (stereo partly drawn) [Example 150, (2S)-N-{[4-(aminomethyl)thiophen-2-yl]methyl}-4-(4,4-dimethyl-5-phenyl-4,5-dihydro-1,3-oxazol-2-yl)-1-(N^2,N^2,N^6,N^6-tetramethyl-D-lysyl)piperazine-2-carboxamide], the IC50 came out at 48.5 nM.

Turning to `C[C@H]1N=C(N2CCN(C(=O)[C@@H](CCCCNS(C)(=O)=O)NC3CCCCC3)[C@H](C(=O)NCc3cccs3)C2)O[C@H]1c1ccccc1` [Example 151, (2S)-1-[N^2-cyclohexyl-N^6-(methylsulfonyl)-D-lysyl]-4-[(4R,5S)-4-methyl-5-phenyl-4,5-dihydro-1,3-oxazol-2-yl]-N-(thiophen-2-ylmethyl)piperazine-2-carboxamide], the IC50 came out at 14.2 nM.

As to `C[C@@H]1N=C(N2CCN(C(=O)[C@@H](CCCCNS(C)(=O)=O)NC3CCCCC3)[C@H](C(=O)NCc3cccs3)C2)O[C@@H]1c1ccccc1` [Example 152, (2S)-1-[N^2-cyclohexyl-N^6-(methylsulfonyl)-D-lysyl]-4-[(4S,5R)-4-methyl-5-phenyl-4,5-dihydro-1,3-oxazol-2-yl]-N-(thiophen-2-ylmethyl)piperazine-2-carboxamide], the IC50 was 34.2 nM.

Turning to `COc1cc(CNC(=O)[C@@H]2CN(C3=NC(C)(C)[C@H](c4ccccc4)O3)CCN2C(=O)[C@@H](CCCCN(C)C)N(C)C)ccc1CN` [Example 153, (2S)-N-[4-(aminomethyl)-3-methoxybenzyl]-4-[(5S)-4,4-dimethyl-5-phenyl-4,5-dihydro-1,3-oxazol-2-yl]-1-(N^2,N^2,N^6,N^6-tetramethyl-D-lysyl)piperazine-2-carboxamide], the IC50 was 7.4 nM.

In the case of `COc1cc(CNC(=O)[C@@H]2CN(C3=NC(C)(C)[C@H](c4ccccc4)O3)CCN2C(=O)[C@@H](CCCCN(C)C)N(C)C)ccc1C(N)=O` [Example 154, (2S)-N-(4-carbamoyl-3-methoxybenzyl)-4-[(5S)-4,4-dimethyl-5-phenyl-4,5-dihydro-1,3-oxazol-2-yl]-1-(N^2,N^2,N^6,N^6-tetramethyl-D-lysyl)piperazine-2-carboxamide], the half-inhibitory concentration (IC50) turned out to be 12.4 nM.

With `CN(C)CCCC[C@H](C(=O)N1CCN(C2=NC(C)(C)C(c3ccccc3)O2)C[C@H]1C(=O)NCc1ccc(C(N)=O)cc1)N(C)C` (stereo partly drawn) [Example 155, (2S)-N-(4-carbamoylbenzyl)-4-(4,4-dimethyl-5-phenyl-4,5-dihydro-1,3-oxazol-2-yl)-1-(N^2,N^2,N^6,N^6-tetramethyl-D-lysyl)piperazine-2-carboxamide], the IC50 was determined as 53.6 nM.

For `CC1(C)N=C(N2CCN(C(=O)[C@H](N)CCCCN3CCCCC3)[C@H](C(=O)NCc3cccc(Cl)c3)C2)OC1c1ccccc1` (stereo partly drawn) [Example 156, (2S)-N-(3-chlorobenzyl)-4-(4,4-dimethyl-5-phenyl-4,5-dihydro-1,3-oxazol-2-yl)-1-(6-piperidin-1-yl-D-norleucyl)piperazine-2-carboxamide], the IC50 was determined as 52.3 nM.

For `CC1(C)N=C(N2CCN(C(=O)[C@H](N)CCCCN3CCCCC3)[C@H](C(=O)NCc3cc(Cl)ccc3-n3cnnn3)C2)OC1c1ccccc1` (stereo partly drawn) [Example 157, (2S)-N-[5-chloro-2-(1H-tetrazol-1-yl)benzyl]-4-(4,4-dimethyl-5-phenyl-4,5-dihydro-1,3-oxazol-2-yl)-1-(6-piperidin-1-yl-D-norleucyl)piperazine-2-carboxamide], the 50% inhibitory concentration (IC50) is 54.8 nM.

With `CC1(C)N=C(N2CCN(C(=O)[C@H](N)CCCCN3CCCCC3)[C@H](C(=O)NCc3cc4cnccc4s3)C2)OC1c1ccccc1` (stereo partly drawn) [Example 158, (2S)-4-(4,4-dimethyl-5-phenyl-4,5-dihydro-1,3-oxazol-2-yl)-1-(6-piperidin-1-yl-D-norleucyl)-N-(thieno[3,2-c]pyridin-2-ylmethyl)piperazine-2-carboxamide], the half-maximal inhibitory concentration (IC50) amounted to 54.4 nM.

Regarding `CC(C)N[C@H](CCCCN1CCCCC1)C(=O)N1CCN(C2=NC(C)(C)C(c3ccccc3)O2)C[C@H]1C(=O)NCc1cc2cnccc2s1` (stereo partly drawn) [Example 159, (2S)-4-(4,4-dimethyl-5-phenyl-4,5-dihydro-1,3-oxazol-2-yl)-1-[N-(1-methylethyl)-6-piperidin-1-yl-D-norleucyl]-N-(thieno[3,2-c]pyridin-2-ylmethyl)piperazine-2-carboxamide], the IC50 worked out at 27.4 nM.

As for `CC(C)N[C@H](CCCCN1CCCCC1)C(=O)N1CCN(C2=NC(C)(C)C(c3ccccc3)O2)C[C@H]1C(=O)NCc1cccc(Cl)c1` (stereo partly drawn) [Example 160, (2S)-N-(3-chlorobenzyl)-4-(4,4-dimethyl-5-phenyl-4,5-dihydro-1,3-oxazol-2-yl)-1-[N-(1-methylethyl)-6-piperidin-1-yl-D-norleucyl]piperazine-2-carboxamide], the IC50 came out at 13.8 nM.

As for `C[C@@H]1N=C(N2CCN(C(=O)[C@H](N)CCCCN3CCCCC3)[C@H](C(=O)NCc3cccc(Cl)c3)C2)O[C@H]1c1ccccc1` [Example 161, (2S)-N-(3-chlorobenzyl)-4-[(4S,5S)-4-methyl-5-phenyl-4,5-dihydro-1,3-oxazol-2-yl]-1-(6-piperidin-1-yl-D-norleucyl)piperazine-2-carboxamide], the IC50 worked out at 22 nM.

Turning to `C[C@@H]1N=C(N2CCN(C(=O)[C@H](N)CCCCN3CCCCC3)[C@H](C(=O)NCc3ccc4[nH]cc(Cl)c4c3)C2)O[C@H]1c1ccccc1` [Example 162, (2S)-N-[(3-chloro-1H-indol-5-yl)methyl]-4-[(4S,5S)-4-methyl-5-phenyl-4,5-dihydro-1,3-oxazol-2-yl]-1-(6-piperidin-1-yl-D-norleucyl)piperazine-2-carboxamide], the IC50 was found to be 8.4 nM.

Take `C[C@@H]1N=C(N2CCN(C(=O)[C@H](N)CCCCN3CCCCC3)[C@H](C(=O)NCc3cc4cnccc4s3)C2)O[C@H]1c1ccccc1` [Example 163, (2S)-4-[(4S,5S)-4-methyl-5-phenyl-4,5-dihydro-1,3-oxazol-2-yl]-1-(6-piperidin-1-yl-D-norleucyl)-N-(thieno[3,2-c]pyridin-2-ylmethyl)piperazine-2-carboxamide]: the IC50 is 15 nM.

`C[C@@H]1N=C(N2CCN(C(=O)[C@H](N)CCCCN3CCCCC3)[C@H](C(=O)NCc3cccs3)C2)O[C@H]1c1ccccc1` [Example 164, (2S)-4-[(4S,5S)-4-methyl-5-phenyl-4,5-dihydro-1,3-oxazol-2-yl]-1-(6-piperidin-1-yl-D-norleucyl)-N-(thiophen-2-ylmethyl)piperazine-2-carboxamide]: the IC50 stood at 22.8 nM.
